Experimental data from US20030087947A1, “Novel photosensitizers of 9-hydroxypheophorbide-a derivatives used for photodynamic therapy” (priority 2000, published 2003).

Tests used:
[1] = decomposing slowly in the room temperature; cited from earlier work
[2] = tested on: lung cancer A549 cell line; experiment: Cytotoxicity of photosensitizer without irradiation (dark culture, cell death rate); assay type: cell-based; conditions: 75 μg/ml, dark culture room, 48 hours, no irradiation, mean of 5 experiments
Experimental: (§1) In order to minimize the side light reaction by natural light and lamp, the cell distribution and medium exchange were carried out in green light (500 nm), where the experimental samples were not reacted. After 75 μg/ml of reagent treatment on each 10 dishes at the dark culture room, the experimental samples were cultured for 48 hours. Then, the cell death rate was measured. The data was calculated as a mean value after 5 times experiments. […] Further, the cytotoxicity of 9-HPbD-a could be neglectable.

[3] = tested on: lung cancer A549 cell line; experiment: In-vitro photodynamic therapy efficacy (cell death after irradiation); assay type: cell-based
Experimental: The cell line added with “Photogem” was treated and irradiated by red light (570˜650 nm, 0.35 mW/cm^2, 315 J/m^2) from fluorescent lamp and the test sample was treated and irradiated by same red light and laser (660 nm, 0.35 mW/cm^2, 315 J/m^2). After irradiation treatment, the cell line was cultured by adding new medium and 10% of fetal calf serum at 37° C. The cytotoxicity was measured by clonogenic assay after 8 days.
The dose-response curve was prepared after following treatment; i) treating each 25 µg/ml of Photogem, 10-hydroxypheophytin-a and 9-hydroxypheophorbide-a (“9-HPbD-a”) to each cell line; ii) laying them for 2 hours; and iii) treating and irradiating the 660 nm light (315 J/m^2). To the Photogem sample, the light (630±10 nm) was used by 1 KW Xenon lamp (Model A 5000; Photon Technology International Inc.; Power density 75 mW/cm^2) equipped with 5 mm diameter of liquid light guide (2000A, Luminex, Munich, Germany).
as §1
Further, in a small amount (0.75 μg/ml), high cell death effect was detected. Using another synthesized compound of 9-HPbD-a in the other batch, the experiment was performed according to same protocol again. We detected the same result through the repeated experiments.
With a very small amount 0.0185 μg/ml of administration, the cell death treated with 9-HPbD-a occurred according to the increase of total light dose.

cyclin B1 = experiment: Western blot analysis of cell cycle regulation during photodynamic therapy; assay type: cell-based; conditions: 75˜0.0185 μg/ml, 20 joule total light dose
Experimental: FIG. 1 is a photograph showing cell cycle regulation after treating 9-hydroxypheophorbide-a of formula (I) to the cancer cell line.
The change of cell cycle is a key element for evaluating cancer treatment. In most anti-cancer agents, the growth of cancer cells is suppressed by regulating the expression of cell cycle regulation gene. In this example, the change of cell cycle was measured using 9-HPbD-a during the photodynamic therapy. Using various cencentrations of photosensitizer (75˜0.0185 μg/ml) under 20 joule in total light dose, Western blot analysis was carried out to detect the change of cell cycle in accordance with change of regulation activity of cell cycle regulation gene.

cancer cell line = experiment: FACS analysis of cell cycle; assay type: cell-based; conditions: FACS analysis after treatment
SNU-1041 implanted tumor [4] = experiment: Therapeutic effect at the implanted tumor (3 groups, bare fiber tip laser); assay type: in vivo, nude mice BALB/C/nu/nu; conditions: among 10 cases; intratumoral injection 0.1˜0.2 ml, 660 nm diode laser after 1˜4 hours
Experimental: As experimental animals, 6 weeks aged male nude mice BALB/C/nu/nu were employed, supplying sterilized water and sterilized feed. These animals were bred in filter-top cage under proper temperature and moisture. To implant cultured cancer cell lines into nude mouse, 0.1 ml of SNU-1041 cell line suspension (10^7 cells/0.1 ml) was injected subcutaneously. After injection, the tumor occurred and the volume of tumor became increased after more than 8 weeks observation.
Plain melanoma cell line SNU-1041 was implanted into nude mouse. After the lapse of 8 weeks, it was observed that the tumor became spread in all body. The photodynamic therapy was performed only after the tumor volume became 100˜600 mm^3.
The experimental groups were divided into 3 groups for photodynamic therapy. 660 nm diode laser was inserted and irradiated using bare fiber tip. By monitoring the temperature outside of the tumor, the therapeutic effect caused by hyperthermia was removed. The optimal irradiation strength and time were measured.
The photodynamic therapy was performed when the volume of implanted tumor became about 100˜600 mm^3. The experimental groups were divided into 3 groups.
0.1˜0.2 ml of 9-HPbD-a (0.75 mg/ml) was injected into tumor using 30G syringe. After 1˜4 hours, 660 nm diode laser was irradiated using […] fiber optic tip. […]

SNU-1041 implanted tumor [5] = experiment: Photodynamic therapy using 9-HPbD-a (6 groups, tumor volume and RTG); assay type: in vivo, nude mice BALB/C/nu/nu
Experimental: The experimental groups were divided into 6 groups when the volume of implanted tumor became about 100˜600 mm^3. Following treatment was performed and the change of tumor was observed.
With only 0.1˜0.15 ml of administration of 9-HPbD-a and liposome conjugate into the tumor, the change of tumor was observed without irradiation.
With only 0.1˜0.15 ml of administration of Photogem into the tumor, the change of tumor was observed without irradiation.
0.1˜0.15 ml of Photogem was administered into the tumor.
0.1˜0.15 ml of 9-HPbD-a and liposome conjugate was administered into the tumor.
The photodynamic therapy was initiated after 2 weeks from implantation of cancer cell line, when the volume of tumor became about 100˜600 mm^3 (FIG. 6).
The measurements of tumor volume were carried out at the time of just before administration of test material; just after administration of 9-HPbD-a; 1 week after administration; 2 weeks after administration; 3 weeks after administration; and 4 weeks after administration. The anti-cancer effect was evaluated by the volume of tumor. The calculation of volume was carried out by using following equation.
(V=volume, A=long axis, B=short axis, C=height)
The evaluation of anti-cancer effect was decided after 4 weeks observation of tumor volume. […] FIG. 7 is a photograph showing that the tumor is treated by administration of 9-HPbD-a with 660 nm diode laser irradiation.

[6] = when used in more than a certain amount; cited from earlier work
[7] = 0.0185 μg/ml, total light dose 100 joule
[8] = 0.0375 μg/ml, total light dose 100 joule
[9] = 0.075 μg/ml, total light dose 100 joule
[10] = 0.75 μg/ml, total light dose 20 joule, 665 nm monochromatic light
[11] = 0.75 μg/ml, total light dose 100 joule
[12] = 7.5 μg/ml, total light dose 20 joule, 665 nm monochromatic light
[13] = 75 μg/ml, total light dose 20 joule, 665 nm monochromatic light
[14] = after 4 weeks from treatment, administration into tumor with 660 nm diode laser irradiation

Row | Structure (SMILES) | Stability [1] | Cytotoxicity (cell death rate) [2] | Efficacy (cell death) [3, 7] | Efficacy (cell death) [3, 8] | Efficacy (cell death) [3, 9] | Efficacy (cell death) [3, 10] | Efficacy (cell death) [3, 11] | Efficacy (cell death) [3, 12] | Efficacy (cell death) [3, 13] | Concentration, relative to known photosensitizer concentration, showing considerable cell death effect ([3]; A549, total light dose 20 joule) | Amount of cyclin B1 (cyclin B1) | Cell cycle effect (cancer cell line) | Cases showing complete elimination of tumor (SNU-1041 implanted tumor [4]) | Cases showing partial elimination of tumor (SNU-1041 implanted tumor [4]) | Relative tumor growth (RTG) (SNU-1041 implanted tumor [5]; [14]) | Volume of tumor (SNU-1041 implanted tumor [5]; [14]) | Change of tumor volume (SNU-1041 implanted tumor [5]; photosensitizer into the tumor only, without irradiation (Group 3 and 4)) | Efficacy (cell death) ([3]; 7.5 μg/ml, total light dose 100 joule) | Toxicity [6]
1 | C=Cc1c(C)c2cc3nc(c4c5[nH]c(cc6nc(cc1[nH]2)C(C)=C6CC)c(C)c5C(=O)[C@@H]4C(=O)OC)[C@@H](CCC(=O)O)[C@@H]3C [pheophorbide-a] | low stability | – | – | – | – | – | – | – | – | – | – | – | – | – | – | – | – | – | –
2 | C=Cc1c(C)c2cc3nc(c4c5[nH]c(cc6nc(cc1[nH]2)C(C)=C6CC)c(C)c5C(O)[C@@H]4C(=O)OC)[C@@H](CCC(=O)O)[C@@H]3C (stereo partly drawn) [9-HPbD-a, 9-hydroxypheophorbide-a] | – | 10.05% | 10% | 25% | 100% | 10˜20% | 100% | 100% | 100% | 1/100 | rapidly declined | cell cycle arrest occurred in G2/M cell cycle | 3 cases | 7 cases | 3.5 | 646 mm^3 | no observation of decline of tumor volume | – | –
3 | C=Cc1c(C)c2cc3nc(c4c5[nH]c(cc6nc(cc1[nH]2)C(C)=C6CC)c(C)c5C(=O)C4(O)C(=O)OC)C(CCC(=O)OCC=C(C)CCCC(C)CCCC(C)CCCC(C)C)C3C (stereo not drawn) [10-hydroxypheophytin-a, reference compound] | – | 3.94% | 0% | 0% | 0% | 0% | 5.85% | 5˜10% | <70% | – | – | – | – | – | – | – | – | 100% | fatal toxicity
